Test results published in patent US5859056A, “Pharmaceutical composition for treating cardiovascular diseases containing 3-(2,2,2-trimethylhydrazinium)propionate and γ-butyrobetaine” (priority 1995, dated 1999).
Where two headings read alike, the source gives them in different places.

Columns and labels:
[1] = test system: CaCl2-induced lethal arrhythmias in mice; assay: CaCl2-induced lethal arrhythmias in mice (Table 4); assay type: in vivo, albino mice; conditions: for Survive (number of animals): 10 observations
Procedure: This experiment was performed on male and female conscious albino mice (19-26 g) administering to their tail vein a 2% (by weight) calcium chloride solution, animal protection against lethal arrhythmia being used as an effect criterion (Table 4).

[2] = test system: CaCl2-induced lethal arrhythmias in rats; assay: CaCl2-induced lethal arrhythmias in rats (Table 5); assay type: in vivo, albino rats; conditions: for Survive (number of animals) / Survive (percent): 5 observations
Procedure: These experiments were performed on male and female albino rats (190 to 230 g) anesthetized with urethane ([…], i.p.), and after 2% calcium chloride solution administration to animal foot vein ECG was registered in II standard lead.

[3] = test system: hemodynamics of anesthetised cats; assay: effects on hemodynamics of anesthetised cats (Table 1); assay type: in vivo, cat
Procedure: The experiments were performed on male and female (2.9-3.8 kg) anaesthetized cats (urethane 200 mg/kg and chloralose 50 mg/kg, both i.p.).
The chest was opened in the experimental animals, which were artificially respirated, and blood pressure in the carotid artery as well as general aorta blood flow were measured on physiograph DMP-46 "Narco Bio-Systems" USA.

[4] = test system: isolated rabbit ear blood vessel; assay: adrenaline-induced isolated rabbit ear blood vessel spasms (Table 2); conditions: for Perfusion pressure, final data, max / Perfusion pressure, final data, min: after adrenaline 3.10^-7 M addition
rabbit ear blood vessel = assay: adrenaline-induced rabbit ear blood vessel spasm in the presence of L-nitro-arginine (Table 3); conditions: adrenaline 3.10^-7 M and L-NO2-Arg 10 mg/l
[5] = test system: ischemia- and reperfusion-induced heart rhythm disturbances in rats; assay: ischemia- and reperfusion-induced heart rhythm disturbances in rats, therapeutic regimen (Table 6); assay type: in vivo, Wistar rats; conditions: for Lethality (number of animals from total numb) / ST rise during occlusion / Ventricular fibrillation (number of animals from total numb) / Ventricular tachycardy (number of animals from total numb): 50 mg/kg total (25 injection + 25 infusion); for efficacy against ischaemia-reperfusion-induced damage and rhythm disturbances: therapeutic regimen, in words
Procedure: (§2) The experiments were carried out on Wistar rats (260-330 g). During phenobarbital anesthesia (50 mg/kg, i.p.) and artificial respiration their chest was opened and the left coronary artery was ligated with 6.0 Silk Ethicon thread which was pulled out through plastic pipe. Occlusion was made by pressing the plastic pipe to the heart surface, and ischaemia stage was controlled by ECG, fixing ischaemia-induced changes in ECG. Solutions of the substances or saline were i.v. injected in two regimens:
2) therapeutically--1.5 min after occlusion by administering 25 mg/kg in injection and 25 mg/kg infusively. Infusion was stopped 2 min after reperfusion.

[6] = test system: ischemia and reperfusion-induced heart rhythm disturbances in rats; assay: ischemia and reperfusion-induced heart rhythm disturbances in rats, prophylactic regimen (Table 7); assay type: in vivo, Wistar rats; conditions: for Lethality (number of animals from total numb) / ST rise during occlusion / Ventricular fibrillation (number of animals from total numb) / Ventricular tachycardy (number of animals from total numb): 50 mg/kg (proph.), i.v. 30 min before occlusion; for efficacy against ischaemia-reperfusion-induced damage and rhythm disturbances: prophylactic regimen, in words
Procedure: as §2
1) prophylactically--30 min before occlusion by administration of 50 mg/kg,

carnitine biosynthesis = conditions: cited from earlier work; for mechanism of action: literature
[7] = literature statements; cited from earlier work
in vivo = conditions: mouse, in vivo
Procedure: (§1) Acute toxicity was studied on male and female albino mice (19-26 g), 10 animals in a group. The substances were administered as a 10% solution orally or i.v. (with 0.004 ml/sec rate).

albino mice = assay: in vivo; conditions: in words
Procedure: as §1

[8] = cited from earlier work; for toxic effects: W. Linneweh, 1929

In the case of `C=C[C@H]1C[N@@]2CC[C@H]1C[C@@H]2[C@@H](O)c1ccnc2ccc(OC)cc12` [Quinidine], the “Protection against the control” value ([1]; 10 mg/kg p.o.) is reported as 10%, the “Survive (number of animals)” value ([1]; 10 mg/kg p.o.) is reported as 2 and the “Protection against the control” value ([1]; 30 mg/kg p.o.) is reported as 30%. For the same molecule, the “Survive (number of animals)” value ([1]; 30 mg/kg p.o.) was 4, the “Protection against the control” value ([1]; 50 mg/kg p.o.) was 50% and the “Survive (number of animals)” value ([1]; 50 mg/kg p.o.) was 6. For the same molecule, the “Protection against the control” value ([2]; 3 mg/kg p.o.) was 25%, the “Survive (number of animals)” value ([2]; 3 mg/kg p.o.) was 1 and the “Survive (percent)” value ([2]; 3 mg/kg p.o.) was 20%. The “Protection against the control” value ([2]; 10 mg/kg p.o.) was 46%, the “Survive (number of animals)” value ([2]; 10 mg/kg p.o.) was 2 and the “Survive (percent)” value ([2]; 10 mg/kg p.o.) was 40%.

For `C[N+](C)(C)NCCC(=O)[O-]` [M, 3-(2,2,2-Trimethylhydrazinium)propionate], the “Blood flow rate changes” value ([3]; 5.0 mg/kg i.v.) was “+5%”, the “Blood flow rate changes” value ([3]; 10.0 mg/kg i.v.) was “+8%” and the “Perfusion pressure, final data, max” value ([4]; 0.3 μM) was 125 mm Hg. The “Perfusion pressure, final data, min” value ([4]; 0.3 μM) was 80 mm Hg, the “Perfusion pressure, final data, max” value ([4]; 1.0 μM) was 123 mm Hg and the “Perfusion pressure, final data, min” value ([4]; 1.0 μM) was 77 mm Hg. For the same molecule, the “Perfusion pressure, final data, max” value ([4]; 2.0 μM) was 126 mm Hg, the “Perfusion pressure, final data, min” value ([4]; 2.0 μM) was 80 mm Hg and the “Perfusion pressure, final data, max” value (rabbit ear blood vessel; 0.3 μM) was 165 mm Hg. For the same molecule, the “Perfusion pressure, final data, min” value (rabbit ear blood vessel; 0.3 μM) was 102 mm Hg, the “Perfusion pressure, final data, max” value (rabbit ear blood vessel; 1.0 μM) was 163 mm Hg and the “Perfusion pressure, final data, min” value (rabbit ear blood vessel; 1.0 μM) was 100 mm Hg. For the same molecule, the “Perfusion pressure, final data, max” value (rabbit ear blood vessel; 2.0 μM) was 165 mm Hg, the “Perfusion pressure, final data, min” value (rabbit ear blood vessel; 2.0 μM) was 100 mm Hg and the “Protection against the control” value ([1]; 8 mg/kg p.o.) was 10%. The “Survive (number of animals)” value ([1]; 8 mg/kg p.o.) was 2, the “Protection against the control” value ([1]; 20 mg/kg p.o.) was 20% and the “Survive (number of animals)” value ([1]; 20 mg/kg p.o.) was 3. For the same molecule, the “Protection against the control” value ([1]; 30 mg/kg p.o.) was 30%, the “Survive (number of animals)” value ([1]; 30 mg/kg p.o.) was 4 and the “Protection against the control” value ([1]; 50 mg/kg p.o.) was 30%. The “Survive (number of animals)” value ([1]; 50 mg/kg p.o.) was 4, the “Protection against the control” value ([1]; 100 mg/kg p.o.) was 40% and the “Survive (number of animals)” value ([1]; 100 mg/kg p.o.) was 5. For the same molecule, the “Protection against the control” value ([2]; 10 mg/kg p.o.) was 15%, the “Survive (number of animals)” value ([2]; 10 mg/kg p.o.) was 1 and the “Survive (percent)” value ([2]; 10 mg/kg p.o.) was 20%. The “Protection against the control” value ([2]; 20 mg/kg p.o.) was 23%, the “Survive (number of animals)” value ([2]; 20 mg/kg p.o.) was 1 and the “Survive (percent)” value ([2]; 20 mg/kg p.o.) was 20%. For the same molecule, the “Protection against the control” value ([2]; 30 mg/kg p.o.) was 25%, the “Survive (number of animals)” value ([2]; 30 mg/kg p.o.) was 1 and the “Survive (percent)” value ([2]; 30 mg/kg p.o.) was 20%. The “Lethality (number of animals from total numb)” value (“Lethality” below) [5] was 3/10, the “ST rise during occlusion” value [5] was 0.4 ± 0.1 mV and the “Ventricular fibrillation (number of animals from total numb)” value (“Ventricular fibrillation” below) [5] was 8/10. The “Ventricular tachycardy (number of animals from total numb)” value (shortened to “Ventricular tachycardy”) [5] was 10/10, the “efficacy against ischaemia-reperfusion-induced damage and rhythm disturbances” value (shortened to “efficacy”) [5] was “relatively low” and the “Lethality” value [6] was 2/8. The “ST rise during occlusion” value [6] was 0.31 mV, the “Ventricular fibrillation” value [6] was 5/8 and the “Ventricular tachycardy” value [6] was 7/8. For the same molecule, the “efficacy” value [6] was “markedly better in the case of prophylaxis, i.e., 30 min. before occlusion when it protects myocardium from ischemia increase during occlusion”, the mechanism of action (carnitine biosynthesis) was “limitation of carnitine biosynthesis rate and the related long-chain fatty acid Transport limitation through mitochondria membranes” and the mechanism of action (carnitine biosynthesis; listed as 3-(2,2,2-trimethylhydrazinium)-propionate (THP)) was “γ-butyrobetaine hydroxylase inhibitor”.

`CC(=O)OCC[N+](C)(C)C` [Ach, acetyl choline] showed a Blood pressure changes ([3]; 0.001 mg/kg i.v.) of -35% and a Heart rate changes ([3]; 0.001 mg/kg i.v.) of -20%.

For `CCOC(=O)Nc1ccc2c(c1)N(C(=O)CCN1CCOCC1)c1ccccc1S2` [Etmozine], the “Protection against the control” value ([1]; 5 mg/kg p.o.) was 20%, the “Survive (number of animals)” value ([1]; 5 mg/kg p.o.) was 3 and the “Protection against the control” value ([1]; 10 mg/kg p.o.) was 40%. For the same molecule, the “Survive (number of animals)” value ([1]; 10 mg/kg p.o.) was 5, the “Protection against the control” value ([1]; 30 mg/kg p.o.) was 40% and the “Survive (number of animals)” value ([1]; 30 mg/kg p.o.) was 5. For the same molecule, the “Protection against the control” value ([2]; 3 mg/kg p.o.) was 20%, the “Survive (number of animals)” value ([2]; 3 mg/kg p.o.) was 1 and the “Survive (percent)” value ([2]; 3 mg/kg p.o.) was 10%. The “Protection against the control” value ([2]; 10 mg/kg p.o.) was 46%, the “Survive (number of animals)” value ([2]; 10 mg/kg p.o.) was 2 and the “Survive (percent)” value ([2]; 10 mg/kg p.o.) was 40%.

In the case of `COC(=O)CCC[N+](C)(C)C` [methyl ester], the pharmacological action [7] is listed as “possesses cholinergic properties”.

With `C[N+](C)(C)CCCC(=O)[O-]` [GBB, γ-butyrobetaine] the “Blood flow rate changes” value ([3]; 5.0 mg/kg i.v.) was 6%, the “Blood flow rate changes” value ([3]; 10.0 mg/kg i.v.) was 12% and the “Perfusion pressure, final data, max” value ([4]; 0.3 μM) was 124 mm Hg. For the same molecule, the “Perfusion pressure, final data, min” value ([4]; 0.3 μM) was 76 mm Hg, the “Perfusion pressure, final data, max” value ([4]; 1.0 μM) was 125 mm Hg and the “Perfusion pressure, final data, min” value ([4]; 1.0 μM) was 80 mm Hg. For the same molecule, the “Perfusion pressure, final data, max” value ([4]; 2.0 μM) was 125 mm Hg, the “Perfusion pressure, final data, min” value ([4]; 2.0 μM) was 78 mm Hg and the “potency on adrenaline-induced vessel spasms relative to 3-(2,2,2-trimethylhydrazinium)propionate” value ([4]; isolated rabbit ear) was 2-3 times. For the same molecule, the “Perfusion pressure, final data, max” value (rabbit ear blood vessel; 0.3 μM) was 168 mm Hg, the “Perfusion pressure, final data, min” value (rabbit ear blood vessel; 0.3 μM) was 105 mm Hg and the “Perfusion pressure, final data, max” value (rabbit ear blood vessel; 1.0 μM) was 165 mm Hg. The “Perfusion pressure, final data, min” value (rabbit ear blood vessel; 1.0 μM) was 100 mm Hg, the “Perfusion pressure, final data, max” value (rabbit ear blood vessel; 2.0 μM) was 163 mm Hg and the “Perfusion pressure, final data, min” value (rabbit ear blood vessel; 2.0 μM) was 100 mm Hg. The “Protection against the control” value ([1]; 8 mg/kg p.o.) was 10%, the “Survive (number of animals)” value ([1]; 8 mg/kg p.o.) was 2 and the “Protection against the control” value ([1]; 20 mg/kg p.o.) was 0%. For the same molecule, the “Survive (number of animals)” value ([1]; 20 mg/kg p.o.) was 1, the “Protection against the control” value ([1]; 30 mg/kg p.o.) was 20% and the “Survive (number of animals)” value ([1]; 30 mg/kg p.o.) was 3. The “Protection against the control” value ([1]; 50 mg/kg p.o.) was 40%, the “Survive (number of animals)” value ([1]; 50 mg/kg p.o.) was 5 and the “Protection against the control” value ([1]; 100 mg/kg p.o.) was 30%. For the same molecule, the “Survive (number of animals)” value ([1]; 100 mg/kg p.o.) was 4, the “protection from lethal arrhythmia (cases)” value ([1]; 50 and 100 mg/kg of γ-butyrobetaine) was 30-40% and the “Protection against the control” value ([2]; 10 mg/kg p.o.) was 20%. For the same molecule, the “Survive (number of animals)” value ([2]; 10 mg/kg p.o.) was 1, the “Survive (percent)” value ([2]; 10 mg/kg p.o.) was 20% and the “Protection against the control” value ([2]; 30 mg/kg p.o.) was 32%. The “Survive (number of animals)” value ([2]; 30 mg/kg p.o.) was 1, the “Survive (percent)” value ([2]; 30 mg/kg p.o.) was 20% and the LD50 (in vivo; iv) was 1860 mg/kg. For the same molecule, the LD50 (in vivo; po) was over 4500 mg/kg, the acute toxicity (albino mice) was “practically nontoxic agent” and the “Lethality” value [5] was 1/10. For the same molecule, the “ST rise during occlusion” value [5] was 0.23 ± 0.05 mV, the “Ventricular fibrillation” value [5] was 4/10 and the “Ventricular tachycardy” value [5] was 7/10. The “efficacy” value [5] was “effectively protects myocardium from ischaemia-reperfusion-induced myocardium damages and ventricular fibrillations which are partially resumed after infusion termination”, the “Lethality” value [6] was 3/8 and the “ST rise during occlusion” value [6] was 0.36 mV. For the same molecule, the “Ventricular fibrillation” value [6] was 6/8, the “Ventricular tachycardy” value [6] was 8/8 and the “efficacy” value [6] was “ineffective”. For the same molecule, the toxic effects ([8]; listed as γ-Butyrobetaine) was “accelerates respiration, causes salivation and lacrimation, pupil dilation, vasoconstriction and heart stop in diastole”, the toxic effects ([8]; listed as γ-butyrobetaine) was “heart stop in diastole” and the LD50 ([8]; s.c.) was over 7000 mg/kg. For the same molecule, the pharmacological action [7] was “pharmacologically inert substance” and the “level of carnitine biosynthesis in the organism” value (carnitine biosynthesis; background statement) was “increases the level of carnitine biosynthesis in the organism”.
